# Assay results published in US10144952B2, “Stabilization and isolation of extracellular nucleic acids” (QIAGEN GmbH, priority 2013, dated 2018).
# pIC50: −log10 of the molar value. Counter-ions that a name gives are not always drawn. Where a SMILES comes first, the peptide text is derived from it. The star is where a group is joined. Cbz = O=C(OCc1ccccc1)*; CH2F = FC*
# What was measured:
# [1] = system: Bid-induced cyctochrome c release from HeLa cell mitochondria; conditions: at 5 μM; cited from earlier work
# [2] = molecular target: cathepsin L (Homo sapiens, UniProt P07711); conditions: cited from earlier work
# [3] = molecular target: T1, calpain II (Homo sapiens, UniProt P17655); conditions: irreversible inhibitor; cited from earlier work
# T1 sequence (P17655 1-700): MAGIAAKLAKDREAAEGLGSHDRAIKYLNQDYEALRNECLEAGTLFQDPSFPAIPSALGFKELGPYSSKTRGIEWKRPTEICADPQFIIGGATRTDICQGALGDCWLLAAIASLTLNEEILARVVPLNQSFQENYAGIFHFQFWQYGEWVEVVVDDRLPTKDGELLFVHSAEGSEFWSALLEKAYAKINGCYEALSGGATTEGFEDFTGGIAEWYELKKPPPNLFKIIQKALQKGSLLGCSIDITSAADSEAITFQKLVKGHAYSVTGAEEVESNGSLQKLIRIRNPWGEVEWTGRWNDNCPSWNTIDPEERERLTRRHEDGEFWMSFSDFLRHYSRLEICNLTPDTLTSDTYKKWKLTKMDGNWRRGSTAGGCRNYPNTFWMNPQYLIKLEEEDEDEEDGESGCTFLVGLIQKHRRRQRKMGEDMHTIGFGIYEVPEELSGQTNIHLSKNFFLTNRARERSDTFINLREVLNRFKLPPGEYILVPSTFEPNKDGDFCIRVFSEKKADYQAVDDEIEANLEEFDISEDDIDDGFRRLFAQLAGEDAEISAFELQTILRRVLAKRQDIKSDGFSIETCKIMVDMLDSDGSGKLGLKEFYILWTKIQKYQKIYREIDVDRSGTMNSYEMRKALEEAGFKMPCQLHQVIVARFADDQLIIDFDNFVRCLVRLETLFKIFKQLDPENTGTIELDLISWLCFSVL
# T1 sequence (P04632 1-268 partner): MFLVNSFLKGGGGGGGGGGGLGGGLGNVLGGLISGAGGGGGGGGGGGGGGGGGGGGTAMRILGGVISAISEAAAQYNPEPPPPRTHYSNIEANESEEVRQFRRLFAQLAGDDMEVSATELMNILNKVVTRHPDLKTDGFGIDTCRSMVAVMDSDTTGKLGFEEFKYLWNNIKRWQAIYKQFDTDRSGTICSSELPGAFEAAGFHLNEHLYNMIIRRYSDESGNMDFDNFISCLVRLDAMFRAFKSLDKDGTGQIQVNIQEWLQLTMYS
# [4] = system: transcriptional activation of COX-2; conditions: cited from earlier work
# [5] = cited from earlier work; for t1/2: buffer
# [6] = system: etoposide-induced cortical neuron death; conditions: cited from earlier work
# [7] = system: cells; conditions: cited from earlier work
# [8] = system: ladder-like pattern of genomic DNA fragments (apoptosis) in whole blood; experiment: chip gel electrophoresis of circulating cell-free DNA; type: cell-based; conditions: 20 μM in whole blood; day 3 and day 7
# Procedure: 1.3.1 Measurement of the blood cell stability/DNA release by the determination of DNA size distribution using a chip gel electrophoresis (2100 Bioanalyzer; Agilent Technologies; Inc., USA) according to manufacturer's instruction (see handbook Agilent DNA 7500 and DNA 12000 Kit Guide), but 1.5 μl instead of 1 μl sample were transferred to the wells.
# Each tested caspase inhibitor was added to whole blood samples (20 μM end concentration in 10 ml blood; blood was collected into Vacutainer K2E Tubes; BD). The whole blood sample was processed as described in section 1 (plasma preparation and nucleic acid isolation).
# The eluted circulating cell-free DNA was separated by size using chip gel electrophoresis (for details on the method see above). […] The DMSO control and the K2E blood (not treated according to the teachings of the present invention) show the same ladder-like pattern of bands. This pattern occurs in samples where apoptosis takes place. During apoptosis, endonucleases degrade genomic DNA at inter-nucleosomal linker regions and produce DNA fragments of circa 180 bp or multiples of 180 bp. Thus, apoptosis occurs in samples which show a clear ladder-like pattern. Furthermore, the strength (darkness) of the pattern is decisive. The darker the bands, the more genomic DNA was released from the cells and thus contaminates the extracellular nucleic acid population.
# [9] = system: release of genomic DNA from white blood cells in whole blood (18S ribosomal DNA 66 bp and 500 bp amplicons); experiment: 18S rDNA qPCR: increase of DNA in plasma of stored whole blood; type: cell-based, human; conditions: for increase of 18S DNA from day 0: Example 5, 2.1, 20 μM, within 7 days of storage at RT; for released DNA / stabilization capability: 3 and 6 days at room temperature
# Excerpt: Detection of ribosomal 18S DNA by quantitative real-time PCR, makes it possible to calculate the x-fold increase of DNA from day 0 to day 3 or 7 (calculation: division of day 3 (or 7) copies by day 0 copies).
# [10] = system: myocardial infarct size during reperfusion; conditions: cited from earlier work
# Sequence of cathepsin L (P07711 114-333, species assumed): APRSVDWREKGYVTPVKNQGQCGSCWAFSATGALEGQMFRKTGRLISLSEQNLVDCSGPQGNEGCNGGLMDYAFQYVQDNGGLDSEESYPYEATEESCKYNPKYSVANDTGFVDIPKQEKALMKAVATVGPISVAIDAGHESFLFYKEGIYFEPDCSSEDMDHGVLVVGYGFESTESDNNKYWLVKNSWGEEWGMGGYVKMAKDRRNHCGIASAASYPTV
compound,measurement,setting,value
"OC(CN1CCNCC1)Cn1c2ccc(Br)cc2c2cc(Br)ccc21 (racemic) [Bax Channel Blocker, (±)-1-(3,6-Dibromocarbazol-9-yl)-3-piperazin-1-yl-propan-2-ol,bis TFA]",inhibition of Bid-induced cytochrome c release,[1],cyctochrome c release from HeLa cell mitochondria (~80%
"CC(C)C[C@H](NC(=O)OCc1ccccc1)C(=O)N[C@@H](CC(C)C)C(=O)N[C@@H](Cc1ccc(O)cc1)C(=O)CF [Calpain Inhibitor IV, Z-Leu-Leu-Tyr-CH2F] (HELM PEPTIDE1{[O=C(OCc1ccccc1)[*:2]].L.L.Y.[FC[*:1]]}$$$$V2.0)",k2 cathepsin L,[2],"680,000 M-1s-1)."
same,k2 calpain II,[3],"28,900 M-1s-1). Also acts as an inhibitor of cathepsin L (k2 ="
O=c1c(O)c(-c2ccc(O)cc2)oc2cc(O)cc(O)c12 [Kaempferol],pIC50,[4],> 4.82
"O=[N+]([O-])c1ccc(-c2cn3c4c(sc3n2)CCCC4)cc1 [Pifithrin-α, p-Nitro, Cyclic]",t1/2,[5],6 h
same,longer half-life than Pifithrin-α,[5]; neuron culture medium at 37° C.,50%
same,fold higher potency than Pifithrin-α,[6],A cell-permeable p53 inhibitor that exhibits 10-fold higher potency
"N=c1sc2c(n1CC(=O)c1ccc([N+](=O)[O-])cc1)CCCC2 [Pifithrin-α, p-Nitro]",t1/2,[5],biological systems (t1/2 = 8h in neuron culture medium at 37° C.).
"CC(C)C(NC(=O)c1ccc2ccccc2n1)C(=O)NC(CC(=O)O)C(=O)COc1c(F)cccc1F (stereo not drawn) [Q-VD-OPh, Quinoline-Val-Asp-CH2-OPH]",toxicity to cells,[7],not toxic to cells even at extremely high concentrations
same,ladder-like pattern of cell-free DNA,[8],significantly reduced ladder-like patterns
same,increase of 18S DNA from day 0,[9],reduced increase of DNA
COC(=O)C[C@H](NC(=O)[C@H](C)NC(=O)[C@@H](NC(=O)OCc1ccccc1)C(C)C)C(=O)CF [Z-Val-Ala-Asp(OMe)-FMK] (Cbz-Val-Ala-Asp(OMe)-CH2F),ladder-like pattern of cell-free DNA,[8],reduced ladder-like pattern
same,increase of 18S DNA from day 0,[9],more prominent on day 7
CCCC(N)=O [butanamide],released DNA / stabilization capability,"[9]; Example 2, 2.5, 3 or 3.5% butanamide or 5% DMAA with 1 μM caspase inhibitor and EDTA",at least comparable stabilization capabilities to DMAA
same,released DNA / stabilization capability,"[9]; Example 3, butanamide 0.5-2% with DMPA 2.5-1%, 1 μM caspase inhibitor, EDTA",comparable stabilization capabilities
same,increase in 18S rDNA,"[9]; Example 4, 0.5, 1.5 and 2.5% (w/v) butanamide with 1 μM caspase inhibitor and EDTA",significantly reduced increase in 18S rDNA
Ac-Leu-Glu-His-Asp-CMK (LEHD; HELM PEPTIDE1{[ac].L.E.H.D.[ClC[*:1]]}$$$$V2.0; SMILES CC(=O)N[C@@H](CC(C)C)C(=O)N[C@@H](CCC(=O)O)C(=O)N[C@@H](Cc1c[nH]cn1)C(=O)N[C@@H](CC(=O)O)C(=O)CCl) [Caspase-9 Inhibitor III],concentration reported to reduce myocardial infarct size,[10],myocardial infarct size during reperfusion (~70 nM).
